Data published in paper PMC7496931, “Activation of Sirtuin 2 Inhibitors Employing Photoswitchable Geometry and Aqueous Solubility” (Chemmedchem, 2020).
Several values for one entry are separate records, joined by “and”; a condition that tells them apart may be missing. Equal entries are not always repeated. Where two headings read alike, the source gives them in different places.

Tests used:
Format in all cases: biochemical
[1] = target: T1, Sirt3 (Homo sapiens, UniProt Q9NTG7); assay: Fluorescence-based ZMAL deacetylase activity assay, Sirt3; design: key to Sirt3 inhibition Δ (class) / Sirt3 inhibition PSS [365 nm] (class): n.i.: no inhibition detected (<30 % @ 100 μM); u.i.: unspecific interactions
T1 construct: Expression and purification of Sirt1_133−747, Sirt2_56−356, and Sirt3_118−395 was carried out as described previously; made in house
T1 sequence (Q9NTG7 118-395): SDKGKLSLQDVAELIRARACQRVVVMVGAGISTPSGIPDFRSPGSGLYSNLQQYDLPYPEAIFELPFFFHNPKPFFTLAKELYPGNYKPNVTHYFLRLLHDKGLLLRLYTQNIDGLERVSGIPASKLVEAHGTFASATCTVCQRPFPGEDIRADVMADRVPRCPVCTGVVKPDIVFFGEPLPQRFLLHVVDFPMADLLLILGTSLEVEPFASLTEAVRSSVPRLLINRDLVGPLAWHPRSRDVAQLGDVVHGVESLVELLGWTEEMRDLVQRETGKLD
Experimental: (§1) The effect of the compounds on deacetylase activity of three human sirtuin isotypes (Sirt1–3) was investigated by a homogeneous fluorescence‐based assay, using (Z)‐Lys(acetyl)‐AMC (ZMAL) as substrate. In order to determine the impact of photoisomerization, the respective compounds were irradiated (365 nm, 5 min) in DMSO prior to incubation in the enzyme assay mixture. The results of the irradiated probes were finally compared to non‐irradiated measurements.
(§2) Cloning, expression and purification of recombinant proteins: Expression and purification of Sirt1_133−747, Sirt2_56−356, and Sirt3_118−395 was carried out as described previously.27 Identity and purity were verified by SDS‐PAGE.
(§3) Fluorescence‐based activity assay: The inhibitory effect of compounds on Sirt1–3 was detected via a previously reported fluorescence‐based assay.29 The synthetic substrate (Z)‐Lys(acetyl)‐AMC (ZMAL) is deacetylated by sirtuins, followed by tryptic digestion and thereby release of 7‐aminomethylcoumarin, leading to a fluorescent readout. Inhibition was determined by comparing percentage substrate conversion to a DMSO control after subtraction of the blank fluorescence signal. All compounds were tested at 100 or 50 μM and 10 μM respectively. […] IC50 values were calculated with OriginPro 9.0 G using a non‐linear regression to fit the dose response curve (Figure S6). An enzyme‐free blank control and a 100 % conversion control using AMC instead of ZMAL were measured as well. Inhibition measurements were performed in biological duplicates for all compounds. […]
(§4) Fluorescence-Based Activity Assay (ZMAL-Assay)
(§5) The influence of the synthesized compounds on the deacetylase activity of the class I sirtuins Sirt1–3 was determined in a homogenous fluorescence-based enzyme assay, using the artificial substrate Z-(Ac)Lys-AMC (ZMAL). ZMAL is processed by sirtuins yielding Z-Lys-AMC.
(§6) The latter is subsequently cleaved by tryptic digestion, releasing 7-amino-4-methylcoumarin (AMC), excitation of which leads to a fluorescent read out (λex=390 nm; λem=460 nm). Instead, […]
(§7) contribute to the fluorescence signal. Therefore, the fluorescence intensity is proportional to the activity of the respective sirtuin.
(§8) After subtraction of the blank fluorescence signal (without enzyme) from the signal of the respective probe, the residual signal intensity is related to a 100 % conversion control (AMC), […]
(§9) yielding the percentage substrate conversion. Comparison of the determined substrate conversion with a no-inhibition DMSO control yields the percentage inhibition at the respective […]
(§10) For determination of IC50, inhibitory activity of the respective compound was determined at 8 to 10 distinct concentrations. The measured values were analysed by a non-linear fit to the dose-response curve using a four parameter logistic model (Figure S6):
(§11) Figure S6: Non-linear regression of the dose-response curves of compounds 15c and 15f at the thermal equilibrium (∆, black) and after 5 minutes of 365 nm irradiation (red). […]
(§12) A maximal polarization control using just DMSO and a minimal polarization control using 1 µL of the 400 µM solution of 22 instead of inhibitor were performed as well as a blank control containing 1 µL of DMSO in 19 µL assay buffer. The mixture was incubated 10 min at 37 °C

[2] = target: T2, Sirt1 (Homo sapiens, UniProt Q96EB6); assay: Fluorescence-based ZMAL deacetylase activity assay, Sirt1
T2 construct: Expression and purification of Sirt1_133−747, Sirt2_56−356, and Sirt3_118−395 was carried out as described previously; made in house
T2 sequence (Q96EB6 133-747): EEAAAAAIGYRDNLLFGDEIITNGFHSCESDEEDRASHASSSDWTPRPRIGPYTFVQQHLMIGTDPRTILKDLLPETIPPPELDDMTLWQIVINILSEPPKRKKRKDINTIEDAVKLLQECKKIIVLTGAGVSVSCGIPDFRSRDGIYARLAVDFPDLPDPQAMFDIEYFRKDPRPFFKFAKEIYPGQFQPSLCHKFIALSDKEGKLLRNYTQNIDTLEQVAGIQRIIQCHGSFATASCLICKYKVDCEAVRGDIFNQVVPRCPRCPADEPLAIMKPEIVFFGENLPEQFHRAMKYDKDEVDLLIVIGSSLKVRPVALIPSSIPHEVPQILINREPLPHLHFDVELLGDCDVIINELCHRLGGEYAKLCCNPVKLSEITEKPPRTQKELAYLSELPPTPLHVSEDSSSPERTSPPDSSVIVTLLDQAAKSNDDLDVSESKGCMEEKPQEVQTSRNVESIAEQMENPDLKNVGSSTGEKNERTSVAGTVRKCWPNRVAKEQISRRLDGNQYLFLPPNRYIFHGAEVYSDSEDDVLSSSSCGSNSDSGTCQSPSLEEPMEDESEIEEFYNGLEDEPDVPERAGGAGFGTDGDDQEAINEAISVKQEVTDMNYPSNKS
Experimental: as §1, §2, §3, §4, §5, §6, §7, §8, §9, §10, §11
A maximal polarization control using just DMSO and a minimal polarization control using 1 µL of the 400 µM solution of 22 instead of inhibitor were performed as well as a blank control containing 1 µL of DMSO in 19 µL assay buffer. The mixture was incubated 10 min at 37 °C […]
(1 picture or pasted object on this page, not shown here)

[3] = target: T3, Sirt2 (Homo sapiens, UniProt Q8IXJ6); assay: Fluorescence-based ZMAL deacetylase activity assay, Sirt2; conditions: for decrease of Sirt2 inhibition upon 365 nm irradiation (factor) / increase of Sirt2 inhibition upon 365 nm irradiation (factor): PSS 365 nm versus thermal equilibrium
T3 construct: Expression and purification of Sirt1_133−747, Sirt2_56−356, and Sirt3_118−395 was carried out as described previously; made in house
T3 sequence (Q8IXJ6 56-356): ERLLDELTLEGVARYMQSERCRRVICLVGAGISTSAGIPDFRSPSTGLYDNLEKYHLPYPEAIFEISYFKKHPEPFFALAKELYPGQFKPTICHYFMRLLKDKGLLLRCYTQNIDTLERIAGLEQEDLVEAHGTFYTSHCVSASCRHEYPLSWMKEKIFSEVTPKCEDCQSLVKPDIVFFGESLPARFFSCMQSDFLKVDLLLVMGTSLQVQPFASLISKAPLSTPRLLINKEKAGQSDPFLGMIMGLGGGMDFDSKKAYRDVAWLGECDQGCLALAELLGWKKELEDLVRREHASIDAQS
Experimental: as §1, §2, §3, §4, §5, §6, §7, §8, §9, §10, §11, §12

[4] = PSS after 5 min UV irradiation (365 nm), read-out: Sirt3 inhibition PSS [365 nm], percent inhibition
[5] = thermal equilibrium (Δ), read-out: Sirt3 inhibition Δ, percent inhibition
[6] = PSS after 5 min UV irradiation (365 nm), read-out: Sirt1 inhibition PSS [365 nm] (class)
[7] = thermal equilibrium (Δ), read-out: Sirt1 inhibition Δ (class)
[8] = PSS after 5 min UV irradiation (365 nm), read-out: Sirt2 inhibition PSS [365 nm], percent inhibition (converted)
[9] = thermal equilibrium (Δ), read-out: Sirt2 inhibition Δ, percent inhibition (converted)
[10] = @ 100 μM, PSS after 5 min UV irradiation (365 nm), read-out: Sirt1 inhibition PSS [365 nm], percent inhibition
[11] = PSS after 5 min UV irradiation (365 nm), read-out: Sirt2 inhibition PSS [365 nm], IC50
[12] = thermal equilibrium (Δ), read-out: Sirt2 inhibition Δ, IC50
[13] = PSS after 5 min UV irradiation (365 nm)
[14] = PSS after 5 min UV irradiation (365 nm), read-out: Sirt3 inhibition PSS [365 nm], IC50
[15] = thermal equilibrium (Δ), read-out: Sirt3 inhibition Δ, IC50

## CCCC(=O)Nc1c(C)cc(/N=N/c2cncc(C(N)=O)c2)cc1C [9 b]
[1]; [4]
  inhibition at 100 µM: 52%
[1]; [5]
  inhibition at 100 µM: 80%
[2]; [6]
  inhibition at 100 µM: < 30%
[2]; [7]
  inhibition at 100 µM: < 30%
[3]; [8]
  inhibition at 10 µM: 4%
[3]; [9]
  inhibition at 10 µM: 30%

## NC(=O)c1cncc(/N=N/c2ccc(C#CCCCCO)cc2)c1 [15 g]
[1]; [4]
  inhibition at 10 µM: 22%
[1]; [5]
  inhibition at 10 µM: 64%
[2]; [10]
  inhibition at 100 µM: 54%
[2]; @ 100 μM, thermal equilibrium (Δ), read-out: Sirt1 inhibition Δ, percent inhibition
  inhibition at 100 µM: 60%
[3]
  decrease of Sirt2 inhibition upon 365 nm irradiation (factor): 1.6 fold
[3]; [11]
  IC50: 11.8 ± 1 µM
[3]; [12]
  IC50: 7.2 ± 0.5 µM

## CCCCCCCC(=O)Nc1c(C)cc(/N=N/c2cncc(C(N)=O)c2)cc1C [9 d]
[1]; [13]
  Sirt3 inhibition PSS [365 nm] (class): u.i.
[1]; thermal equilibrium (Δ)
  Sirt3 inhibition Δ (class): u.i.
[2]; [6]
  inhibition at 100 µM: < 30%
[2]; [7]
  inhibition at 100 µM: < 30%
[3]; [8]
  inhibition at 10 µM: 54%
[3]; [9]
  inhibition at 10 µM: 26%
[3]
  increase of Sirt2 inhibition upon 365 nm irradiation (factor): about fivefold
[3]; [11]
  IC50: 7.9 ± 0.7 µM
[3]; [12]
  IC50: 44 ± 9.5 µM

## Cc1cc(/N=N/c2cncc(C(N)=O)c2)cc(C)c1NC(=O)c1ccc(F)cc1 [9 i]
[1]; [13]
  Sirt3 inhibition PSS [365 nm] (class): n.i. (n.i.: no inhibition detected (<30 % @ 100 μM))
[1]; thermal equilibrium (Δ)
  Sirt3 inhibition Δ (class): n.i. (n.i.: no inhibition detected (<30 % @ 100 μM))
[2]; [6]
  inhibition at 100 µM: < 30%
[2]; [7]
  inhibition at 100 µM: < 30%
[3]; [8]
  inhibition at 10 µM: 15%
[3]; [9]
  inhibition at 10 µM: 15%

## CC(C)(C)OC(=O)NCc1ccc(/N=N/c2cncc(C(N)=O)c2)cc1 [15 c]
[1]; PSS 365 nm versus thermal equilibrium
  decrease of Sirt3 inhibition upon 365 nm irradiation (factor): fourfold
[1]; [14]
  IC50: 4 ± 0.7 µM
[1]; [15]
  IC50: 1.1 ± 0.2 µM
[2]; @ 10 μM, PSS after 5 min UV irradiation (365 nm), read-out: Sirt1 inhibition PSS [365 nm], percent inhibition
  inhibition at 10 µM: 6%
[2]; [7]
  inhibition at 100 µM: < 30%
[3]
  decrease of Sirt2 inhibition upon 365 nm irradiation (factor): three
[3]; [11]
  IC50: 2.8 ± 0.1 µM
[3]; [12]
  IC50: 0.9 µM and 0.88 µM

## CCCCCCCCCCCC(=O)Nc1c(C)cc(/N=N/c2cncc(C(N)=O)c2)cc1C [9 f]
[1]; [13]
  Sirt3 inhibition PSS [365 nm] (class): u.i.
[1]; thermal equilibrium (Δ)
  Sirt3 inhibition Δ (class): u.i.
[2]; [6]
  inhibition at 100 µM: < 30%
[2]; [7]
  inhibition at 100 µM: < 30%
[3]; [8]
  inhibition at 10 µM: 65%
[3]; [9]
  inhibition at 10 µM: 46%

## NC(=O)c1cncc(/N=N/c2ccc(Br)cc2)c1 [15 d]
[1]; [14]
  IC50: 13 ± 2.2 µM
[1]; [15]
  IC50: 8.2 ± 1.4 µM
[2]; [10]
  inhibition at 100 µM: 47%
[2]; [7]
  inhibition at 100 µM: < 30%
[3]; [11]
  IC50: 8.4 ± 0.9 µM
[3]; [12]
  IC50: 7.5 ± 0.5 µM

## Cc1cc(/N=N/c2cncc(C(N)=O)c2)cc(C)c1N [7 f]
[1]; non-irradiated, read-out: Sirt3 inhibition, IC50
  IC50: 9 µM and 9.4 µM
[2]; @ 100 μM, non-irradiated, read-out: Sirt1 inhibition, percent inhibition relative to controls
  inhibition at 100 µM: 47%
[3]; non-irradiated, read-out: Sirt2 inhibition, IC50
  IC50: 6 µM and 5.8 µM

## CCCCCCCCCC(=O)NCc1ccc(/N=N/c2cncc(C(N)=O)c2)cc1 [15 f]
[1]; [13]
  Sirt3 inhibition PSS [365 nm] (class): n.i. (n.i.: no inhibition detected (<30 % @ 100 μM))
[1]; thermal equilibrium (Δ)
  Sirt3 inhibition Δ (class): n.i. (n.i.: no inhibition detected (<30 % @ 100 μM))
[2]; [6]
  inhibition at 100 µM: < 30%
[2]; [7]
  inhibition at 100 µM: < 30%
[3]
  increase of Sirt2 inhibition upon 365 nm irradiation (factor): 23 fold
[3]; [11]
  IC50: 1.6 ± 0.2 µM
[3]; [12]
  IC50: 37 µM and 36.6 µM

## CCCCCCCCCC(=O)Nc1c(C)cc(/N=N/c2cncc(C(N)=O)c2)cc1C [9 e]
[1]; [13]
  Sirt3 inhibition PSS [365 nm] (class): u.i.
[1]; thermal equilibrium (Δ)
  Sirt3 inhibition Δ (class): u.i.
[2]; [6]
  inhibition at 100 µM: < 30%
[2]; [7]
  inhibition at 100 µM: < 30%
[3]; [8]
  inhibition at 10 µM: 78%
[3]; [9]
  inhibition at 10 µM: 26%

## CCCCCCCCCCCCCC(=O)Nc1c(C)cc(/N=N/c2cncc(C(N)=O)c2)cc1C [9 g]
[1]; [13]
  Sirt3 inhibition PSS [365 nm] (class): u.i.
[1]; thermal equilibrium (Δ)
  Sirt3 inhibition Δ (class): u.i.
[2]; [6]
  inhibition at 100 µM: < 30%
[2]; [7]
  inhibition at 100 µM: < 30%
[3]; [11]
  IC50: 0.9 ± 0.2 µM
[3]; [12]
  IC50: 2.2 ± 0.3 µM
